In patent publication US20250290117A1, “MOLECULAR PHENOTYPIC ANTIMICROBIAL SUSCEPTIBILITY TESTING” (priority 2024, published 2025):

Tested on: pathogens of clinical samples
Test: Molecular phenotypic antimicrobial susceptibility test of clinical samples, direct PCR without a separate DNA purification step (Table 6)
Format: cell-based
Method: Detection of Molecular Phenotypic Antimicrobial Susceptibility. Disclosed herein are the methods for the detection of phenotypic antimicrobial susceptibility via molecular methods. The present invention describes how a specimen 100 with a known microbial load is incubated and then exposed to a panel of antimicrobial agents to determine sensitivity (prevention of growth) or resistance (allowance of growth) to the specific antimicrobial agents tested utilizing molecular methods.
Sample Collection. Specimens 100 are collected from patients using sterile collection processes that are employed in routine clinical care. Specimens are transported to the testing facility in boric acid preservative.
Preparation of the Specimens for Testing. […] The process for pathogen isolation includes steps of harvesting the pathogen (e.g., via centrifugation), isolating pathogen DNA via a DNA isolation and/or purification kit, and performing PCR on the pathogen DNA via PCR components (e.g., primers, enzymes, buffers) as would be known to the skilled artisan. […] This aliquot is used for antimicrobial susceptibility testing if indicated based on the pathogen detection results. […] Specimens 100 with lower pathogen loads could also be utilized in the antibiotic susceptibility phase of testing with or without a longer incubation period.
Preparation of Antimicrobial Susceptibility Testing Plates. Antimicrobial solutions are prepared at known concentrations. The specific antimicrobials and their concentrations are selected based on the pathogen of interest and the described antimicrobial resistance breakpoints for that specimen pathogen and antimicrobial combination. These antimicrobials have been selected based on those commonly utilized by healthcare providers in routine clinical care for the specific type of suspected infection. The number and types of antimicrobials utilized can be customized based on the infection source, pathogen detected, patient-specific factors such as allergies or other health conditions (e.g., chronic kidney disease or concurrent medication use), or healthcare provider preferences such as antimicrobial availability or cost.
The antimicrobial solutions are prepared in liquid culture media (such as Muller Hinton Broth) to achieve the desired antimicrobial concentration and are then stored at −80° C. until use. For a given specimen, each antimicrobial is tested at a single or multiple antimicrobial concentration(s) which is its established breakpoints for sensitivity. The antimicrobial solutions are prepared and plated out for each specific pathogen. […] This allows for evaluation of pathogen load when no antimicrobial is present.
Specimen Exposure to Antimicrobial Agents. The 1 mL aliquot of the specimen 100 previously mixed with culture media and incubated is obtained. Using optical density measurements as a guide, the specimen 100 is diluted to 0.5 McFarland.
Antimicrobial exposure plates are typically placed into an incubator for 12-16 hours.
Nucleic Acid Amplification of Antimicrobial Agent Exposed Pathogens. The antimicrobial exposure plate is removed after the period of incubation. The specimen then undergoes a purification or lysis step. For example, the specimen may undergo a purification step (e.g., magnetic bead-based or other separation protocol to isolate genetic material). In another example, the specimen may undergo a cell lysis step. For example, buffer (e.g., lysis buffer) may be added and incubated in the thermal cycler for preparation for direct PCR. Next, the specimen may undergo a polymerase chain reaction (PCR) testing protocol, whereby a semi-quantitative PCR method is utilized. This may be completed either with or without a specific extraction protocol step. The pathogens can be individually targeted and detected, or a universal genetic sequence can be utilized to detect the antimicrobial susceptibility of the specimen as a whole.

[1] = E. coli, clinical sample of r10-r24
[2] = E. coli, clinical sample of r10-r24, Ct control avg 12.97
[3] = E. coli, clinical sample of r158-r172
[4] = E. coli, clinical sample of r158-r172, Ct control avg 12.894
[5] = K. aerogenes, clinical sample of r136-r150
[6] = K. aerogenes, clinical sample of r136-r150, Ct control avg 13.854
[7] = K. pneumoniae, clinical sample of r121-r135
[8] = K. pneumoniae, clinical sample of r121-r135, Ct control avg […]
[9] = M. morganii, clinical sample of r55-r69
[10] = M. morganii, clinical sample of r55-r69, Ct control avg 12.09
[11] = M. morganii, clinical sample of r70-r84
[12] = M. morganii, clinical sample of r70-r84, Ct control avg 11.677
[13] = P. mirabilis, clinical sample of r25-r39
[14] = P. mirabilis, clinical sample of r25-r39, Ct control avg 11.801
[15] = P. mirabilis, clinical sample of r40-r54
[16] = P. mirabilis, clinical sample of r40-r54, Ct control avg 10.06
[17] = E. faecalis, clinical sample of r93-r99
[18] = E. faecalis, clinical sample of r93-r99, Ct control avg 22.011
[19] = E. faecalis, clinical sample of r100-r106
[20] = E. faecalis, clinical sample of r100-r106, Ct control avg 21.027
[21] = E. faecalis, clinical sample of r107-r113
[22] = E. faecalis, clinical sample of r107-r113, Ct control avg 20.529
[23] = E. faecalis, clinical sample of r114-r120
[24] = E. faecalis, clinical sample of r151-r157
[25] = E. faecalis, clinical sample of r151-r157, Ct control avg 18.551

SMILES	Molecular Antibiotic Susceptibility Result [1]	Ct [2]	Molecular Antibiotic Susceptibility Result [3]	Ct [4]	Molecular Antibiotic Susceptibility Result [5]	Ct [6]	Molecular Antibiotic Susceptibility Result [7]	Ct [8]	Molecular Antibiotic Susceptibility Result [9]	Ct [10]	Molecular Antibiotic Susceptibility Result [11]	Ct [12]	Molecular Antibiotic Susceptibility Result [13]	Ct [14]	Molecular Antibiotic Susceptibility Result [15]	Ct [16]	Molecular Antibiotic Susceptibility Result [17]	Ct [18]	Molecular Antibiotic Susceptibility Result [19]	Ct [20]	further results
CO/N=C(\C(=O)N[C@@H]1C(=O)N2C(C(=O)O)=C(CSc3nc(=O)c(=O)[nH]n3C)CS[C@H]12)c1csc(N)n1 [Ceftriaxone]	Sensitive (Antimicrobial wells with pathogen load detected below the control wells (typically >2 cycle thresholds later) may be reported as Sensitive)	24.791	Sensitive (Antimicrobial wells with pathogen load detected below the control wells (typically >2 cycle thresholds later) may be reported as Sensitive)	30.396	Sensitive (Antimicrobial wells with pathogen load detected below the control wells (typically >2 cycle thresholds later) may be reported as Sensitive)	29.137	Sensitive (Antimicrobial wells with pathogen load detected below the control wells (typically >2 cycle thresholds later) may be reported as Sensitive)	28.004	Sensitive (Antimicrobial wells with pathogen load detected below the control wells (typically >2 cycle thresholds later) may be reported as Sensitive)	29.28	Sensitive (Antimicrobial wells with pathogen load detected below the control wells (typically >2 cycle thresholds later) may be reported as Sensitive)	28.625	Sensitive (Antimicrobial wells with pathogen load detected below the control wells (typically >2 cycle thresholds later) may be reported as Sensitive)	22.976	Sensitive (Antimicrobial wells with pathogen load detected below the control wells (typically >2 cycle thresholds later) may be reported as Sensitive)	28.394	–	–	–	–	–
CC1(C)S[C@@H]2[C@H](NC(=O)[C@H](N)c3ccccc3)C(=O)N2[C@H]1C(=O)O [Ampicillin]	Resistant	12.039	Sensitive (Antimicrobial wells with pathogen load detected below the control wells (typically >2 cycle thresholds later) may be reported as Sensitive)	28.274	Sensitive (Antimicrobial wells with pathogen load detected below the control wells (typically >2 cycle thresholds later) may be reported as Sensitive)	16.046	Resistant	14.269	Resistant	10.538	Resistant	11.867	Sensitive (Antimicrobial wells with pathogen load detected below the control wells (typically >2 cycle thresholds later) may be reported as Sensitive)	29.219	Sensitive (Antimicrobial wells with pathogen load detected below the control wells (typically >2 cycle thresholds later) may be reported as Sensitive)	30.995	Sensitive (Antimicrobial wells with pathogen load detected below the control wells (typically >2 cycle thresholds later) may be reported as Sensitive)	29.527	sensitive	33.467	Molecular Antibiotic Susceptibility Result [21]: sensitive; Ct [22]: 27.555; Molecular Antibiotic Susceptibility Result [23]: Sensitive (Antimicrobial wells with pathogen load detected below the control wells (typically >2 cycle thresholds later) may be reported as Sensitive); Ct (E. faecalis, clinical sample of r114-r120, Ct control avg 20.909): 27.767; Molecular Antibiotic Susceptibility Result [24]: Sensitive (Antimicrobial wells with pathogen load detected below the control wells (typically >2 cycle thresholds later) may be reported as Sensitive); Ct [25]: 32.884
CN[C@H](CC(C)C)C(=O)N[C@H]1C(=O)N[C@@H](CC(N)=O)C(=O)N[C@H]2C(=O)N[C@H]3C(=O)N[C@H](C(=O)N[C@H](C(=O)O)c4cc(O)cc(O)c4-c4cc3ccc4O)[C@H](O)c3ccc(c(Cl)c3)Oc3cc2cc(c3O[C@@H]2O[C@H](CO)[C@@H](O)[C@H](O)[C@H]2O[C@H]2C[C@](C)(N)[C@H](O)[C@H](C)O2)Oc2ccc(cc2Cl)[C@H]1O [Vancomycin]	–	–	–	–	–	–	–	–	–	–	–	–	–	–	–	–	Sensitive (Antimicrobial wells with pathogen load detected below the control wells (typically >2 cycle thresholds later) may be reported as Sensitive)	30.062	sensitive	35.563	Molecular Antibiotic Susceptibility Result [21]: sensitive; Ct [22]: 29.81; Molecular Antibiotic Susceptibility Result [23]: Sensitive (Antimicrobial wells with pathogen load detected below the control wells (typically >2 cycle thresholds later) may be reported as Sensitive); Molecular Antibiotic Susceptibility Result [24]: Sensitive (Antimicrobial wells with pathogen load detected below the control wells (typically >2 cycle thresholds later) may be reported as Sensitive); Ct [25]: 35.428; Molecular Antibiotic Susceptibility Result (S. aureus, clinical sample of r85-r92): Resistant; Ct (S. aureus, clinical sample of r85-r92, Ct control avg 20.309): 21.258
Cc1nnc(SCC2=C(C(=O)O)N3C(=O)[C@@H](NC(=O)Cn4cnnn4)[C@H]3SC2)s1 [Cefazolin]	Sensitive (Antimicrobial wells with pathogen load detected below the control wells (typically >2 cycle thresholds later) may be reported as Sensitive)	–	Sensitive (Antimicrobial wells with pathogen load detected below the control wells (typically >2 cycle thresholds later) may be reported as Sensitive)	–	Sensitive (Antimicrobial wells with pathogen load detected below the control wells (typically >2 cycle thresholds later) may be reported as Sensitive)	–	Sensitive (Antimicrobial wells with pathogen load detected below the control wells (typically >2 cycle thresholds later) may be reported as Sensitive)	–	Resistant	–	Resistant	–	Sensitive (Antimicrobial wells with pathogen load detected below the control wells (typically >2 cycle thresholds later) may be reported as Sensitive)	–	Sensitive (Antimicrobial wells with pathogen load detected below the control wells (typically >2 cycle thresholds later) may be reported as Sensitive)	–	–	–	–	–	–
